The values below come from patent US20050222173A1, “Triazolopyrimidines” (priority 2002, published 2005).

This series in a line: logP determination by HPLC (EEC Directive 79/831 Annex V. A8). As to conditions: HPLC, gradient method, acetonitrile/0.1% aqueous phosphoric acid.

Molecules are shown by their SMILES.

For the molecule `CC(Nc1c(-c2c(F)cc(F)cc2F)c(Cl)nc2nc(N(C)C)nn12)C(F)(F)F` (stereo not shown) [Example 3], the log.P came out at 3.52.

In the case of `CC(C)NNc1c(-c2c(F)cc(F)cc2F)c(Cl)nc2nc(N(C)C)nn12` [Example 4], the log.P amounted to 3.33. The figure for `Fc1cc(F)c(-c2c(Cl)nc3nc(Cl)nn3c2N2CCOCC2)c(F)c1` [Example 5] is 2.99; for `CC1CN(c2c(-c3c(F)cc(F)cc3F)c(Cl)nc3nc(Cl)nn23)CC(C)O1` (stereo not shown) [Example 6] it is 3.72.

`CCNc1c(-c2c(F)cc(F)cc2F)c(Cl)nc2nc(Cl)nn12` [Example 7] returned a log.P of 3.07. `Fc1cc(F)c(-c2c(Cl)nc3nc(Cl)nn3c2N2CCCC2)c(F)c1` [Example 8] registered a log.P of 3.46.

`CCN(CC)c1c(-c2c(F)cc(F)cc2F)c(Cl)nc2nc(Cl)nn12` [Example 9] had a log.P of 3.85. The figure for `CCCNc1c(-c2c(F)cc(F)cc2F)c(Cl)nc2nc(Cl)nn12` [Example 10] is 3.37. The molecule `Fc1cc(F)c(-c2c(Cl)nc3nc(Cl)nn3c2NC2CCCC2)c(F)c1` [Example 11] displayed a log.P of 3.9. The figure for `COCCNc1c(-c2c(F)cc(F)cc2F)c(Cl)nc2nc(Cl)nn12` [Example 12] is 2.91; for `CNc1c(-c2c(F)cc(F)cc2F)c(Cl)nc2nc(Cl)nn12` [Example 13] it is 2.67; for `Fc1cc(F)c(-c2c(Cl)nc3nc(Cl)nn3c2NC2CC2)c(F)c1` [Example 14] it is 3.1. Regarding `Fc1cc(F)c(-c2c(Cl)nc3nc(Cl)nn3c2N2CCSCC2)c(F)c1` [Example 15], the log.P came to 3.68. The figure for `Fc1cc(F)c(-c2c(Cl)nc3nc(Cl)nn3c2NN2CCOCC2)c(F)c1` [Example 16] is 2.74; for `CC(NNc1c(-c2ccccc2Cl)c(Cl)nc2nc(Cl)nn12)C1CC1` (stereo not shown) [Example 17] it is 3.55. Take `FC(F)C(F)(F)CNNc1c(-c2ccccc2Cl)c(Cl)nc2nc(Cl)nn12` [Example 18]: the log.P turned out to be 3.59. In the case of `Clc1nc2nc(Cl)c(-c3ccccc3Cl)c(NCC3CC3)n2n1` [Example 19], the log.P came to 3.55. The figure for `OCCNc1c(-c2ccccc2Cl)c(Cl)nc2nc(Cl)nn12` [Example 21] is 2.18. Then `CC(C)(C)Nc1c(-c2ccccc2Cl)c(Cl)nc2nc(Cl)nn12` [Example 22], with 3.99; and `CC(Nc1c(-c2c(F)cc(F)cc2F)c(Cl)nc2nc(Cl)nn12)C1CCCCC1` (stereo not shown) [Example 23], with 4.87; and `OCCNc1c(-c2c(F)cc(F)cc2F)c(Cl)nc2nc(Cl)nn12` [Example 24], with 2.23.

`CC(C)(C)Nc1c(-c2c(F)cc(F)cc2F)c(Cl)nc2nc(Cl)nn12` [Example 25] gave a log.P of 3.9. For the molecule `CN(C)c1c(-c2ccccc2Cl)c(Cl)nc2nc(Cl)nn12` [Example 26], the log.P worked out at 3.18. The figure for `Clc1nc2nc(Cl)c(-c3ccccc3Cl)c(N3CCOCC3)n2n1` [Example 27] is 3.03. The figure for `CC1CN(c2c(-c3ccccc3Cl)c(Cl)nc3nc(Cl)nn23)CC(C)O1` (stereo not shown) [Example 28] is 3.81. The figure for `CCNc1c(-c2ccccc2Cl)c(Cl)nc2nc(Cl)nn12` [Example 29] is 3.07; for `Clc1nc2nc(Cl)c(-c3ccccc3Cl)c(N3CCCC3)n2n1` [Example 30] it is 3.59. In the case of `CCN(CC)c1c(-c2ccccc2Cl)c(Cl)nc2nc(Cl)nn12` [Example 31], the log.P stood at 3.99. Then `Clc1nc2nc(Cl)c(-c3ccccc3Cl)c(N3CCCCC3)n2n1` [Example 32], with 4.18. The figure for `CCCNc1c(-c2ccccc2Cl)c(Cl)nc2nc(Cl)nn12` [Example 33] is 3.46; for `Clc1nc2nc(Cl)c(-c3ccccc3Cl)c(NC3CCCC3)n2n1` [Example 34] it is 4.03; for `COCCNc1c(-c2ccccc2Cl)c(Cl)nc2nc(Cl)nn12` [Example 35] it is 2.91.

`CNc1c(-c2ccccc2Cl)c(Cl)nc2nc(Cl)nn12` [Example 36]: the log.P was determined as 2.7. Turning to `Clc1nc2nc(Cl)c(-c3ccccc3Cl)c(NC3CC3)n2n1` [Example 37], the log.P is on record as 3.18. Regarding `Clc1nc2nc(Cl)c(-c3ccccc3Cl)c(N3CCSCC3)n2n1` [Example 38], the log.P was 3.76. In turn, `CN(C)Nc1c(-c2ccccc2Cl)c(Cl)nc2nc(Cl)nn12` [Example 40] displayed a log.P of 3.18. Consider `COC(=O)N(C)Nc1c(-c2ccccc2Cl)c(Cl)nc2nc(Cl)nn12` [Example 41], for which the log.P is 2.55. Then `Clc1nc2nc(Cl)c(-c3ccccc3Cl)c(NC3CCCCC3)n2n1` [Example 42], with 4.32; and `CC(C)Nc1c(-c2c(F)cc(F)cc2F)c(Cl)nc2nc(Br)nn12` [Example 43], with 3.4; and `CC(C)Nc1c(-c2ccccc2Cl)c(Cl)nc2nc(Br)nn12` [Example 45], with 3.45.

For the molecule `Fc1cc(F)c(-c2c(Cl)nc3nc(Cl)nn3c2N2CCC(C(F)(F)F)CC2)c(F)c1` [Example 46], the log.P came to 5. In turn, `CC(C)Nc1c(-c2c(F)cc(F)cc2F)c(Cl)nc2nc(Cl)nn12` [Example 47] gave a log.P of 3.36. For the molecule `CC(C)CN(N)c1c(-c2c(F)cc(F)cc2F)c(Cl)nc2nc(Cl)nn12` [Example 48], the log.P is recorded as 3.67. Regarding `Fc1cc(F)c(-c2c(Cl)nc3nc(Br)nn3c2N2CCOCC2)c(F)c1` [Example 49], the log.P was determined as 3.03. Take `CC1CN(c2c(-c3c(F)cc(F)cc3F)c(Cl)nc3nc(Br)nn23)CC(C)O1` (stereo not shown) [Example 50]: the log.P is 3.72. On to `CCNc1c(-c2c(F)cc(F)cc2F)c(Cl)nc2nc(Br)nn12` [Example 51], for which the log.P was 3.07. As for `Fc1cc(F)c(-c2c(Cl)nc3nc(Br)nn3c2N2CCCC2)c(F)c1` [Example 52], the log.P turned out to be 3.5. The figure for `CCN(CC)c1c(-c2c(F)cc(F)cc2F)c(Cl)nc2nc(Br)nn12` [Example 53] is 3.9; for `CCCNc1c(-c2c(F)cc(F)cc2F)c(Cl)nc2nc(Br)nn12` [Example 54] it is 3.41; for `COCCNc1c(-c2c(F)cc(F)cc2F)c(Cl)nc2nc(Br)nn12` [Example 55] it is 2.99. `Fc1cc(F)c(-c2c(Cl)nc3nc(Br)nn3c2NC2CC2)c(F)c1` [Example 56] registered a log.P of 3.14.

Regarding `Fc1cc(F)c(-c2c(Cl)nc3nc(Br)nn3c2NN2CCOCC2)c(F)c1` [Example 57], the log.P came out at 2.77.

Consider `CC(C)(C)Nc1c(-c2c(F)cc(F)cc2F)c(Cl)nc2nc(Br)nn12` [Example 58], for which the log.P is reported as 3.9. Regarding `CN(C)c1c(-c2c(F)cc(F)cc2F)c(Cl)nc2nc(Br)nn12` [Example 59], the log.P is given as 3.14.

For `Fc1cc(F)c(-c2c(Cl)nc3nc(Br)nn3c2NC2CCCC2)c(F)c1` [Example 60], the log.P turned out to be 3.94. `Fc1cc(F)c(-c2c(Cl)nc3nc(Br)nn3c2N2CCSCC2)c(F)c1` [Example 61] yielded a log.P of 3.72. Then `Fc1cc(F)c(-c2c(Cl)nc3nc(Br)nn3c2NCC2CC2)c(F)c1` [Example 62], with 3.5; and `CCC(C)Nc1c(-c2c(F)cc(F)cc2F)c(Cl)nc2nc(Br)nn12` (stereo not shown) [Example 64], with 3.76; and `CC(C)CN(N)c1c(-c2c(F)cc(F)cc2F)c(Cl)nc2nc(Br)nn12` [Example 65], with 3.67.

`CC(C)(Nc1c(-c2c(F)cc(F)cc2F)c(Cl)nc2nc(Cl)nn12)C(F)(F)F` [Example 66] returned a log.P of 3.28. Then `Fc1cc(F)c(-c2c(Cl)nc3nc(Cl)nn3c2N2CCCCC2C(F)(F)F)c(F)c1` (stereo not shown) [Example 67], with 3.28. The figure for `CON(C)c1c(-c2c(F)cc(F)cc2F)c(Cl)nc2nc(Br)nn12` [Example 68] is 3.39.

The molecule `CCC(C)CNc1c(-c2c(F)cc(F)cc2F)c(Cl)nc2nc(Cl)nn12` (stereo not shown) [Example 69] showed a log.P of 4.04. The figure for `CCC(C)Nc1c(-c2ccccc2Cl)c(Cl)nc2nc(Cl)nn12` (stereo not shown) [Example 70] is 3.79. Then `CON(C)c1c(-c2c(F)cc(F)cc2F)c(Cl)nc2nc(Cl)nn12` [Example 71], with 3.36; and `CC1=CCCN(c2c(-c3c(F)cc(F)cc3F)c(Cl)nc3nc(Br)nn23)C1` [Example 72], with 4.19; and `CCC(C)CNc1c(-c2c(F)cc(F)cc2F)c(Cl)nc2nc(Br)nn12` (stereo not shown) [Example 73], with 4.05. The figure for `CCC(C)Nc1c(-c2c(F)cc(F)cc2F)c(Cl)nc2nc(Cl)nn12` (stereo not shown) [Example 74] is 3.7; for `CCN(CCOC)c1c(-c2c(F)cc(F)cc2F)c(Cl)nc2nc(Br)nn12` [Example 75] it is 3.62; for `C=C(C)CN(CC)c1c(-c2c(F)cc(F)cc2F)c(Cl)nc2nc(Br)nn12` [Example 76] it is 4.4. `CCN(CCOC)c1c(-c2c(F)cc(F)cc2F)c(Cl)nc2nc(Cl)nn12` [Example 77] came in with a log.P of 3.61.

Take `C=C(C)CN(CC)c1c(-c2c(F)cc(F)cc2F)c(Cl)nc2nc(Cl)nn12` [Example 78]: the log.P is on record as 4.4. The figure for `COc1nc2nc(Cl)c(-c3c(F)cc(F)cc3OC)c(NC(C)C(F)(F)F)n2n1` (stereo not shown) [Example 80] is 3.18. For the molecule `FC(F)(F)C1CCN(c2c(-c3ccccc3Cl)c(Cl)nc3nc(Cl)nn23)CC1` [Example 81], the log.P is on record as 4.22. The molecule `CC1CCN(c2c(-c3ccccc3Cl)c(Cl)nc3nc(Cl)nn23)CC1` [Example 82] registered a log.P of 4.62. Take `Fc1cc(F)c(-c2c(Cl)nc3nc(Cl)nn3c2N2CCC(F)CC2)c(F)c1` [Example 83]: the log.P worked out at 3.55. Molecule `CN1CCN(c2c(-c3c(F)cc(F)cc3F)c(Cl)nc3nc(Cl)nn23)CC1` [Example 84] had a log.P of 2.71. `CC1CCCCN1c1c(-c2c(F)cc(F)cc2F)c(Cl)nc2nc(Cl)nn12` (stereo not shown) [Example 85] came in with a log.P of 4.33. `C=C(C)CNc1c(-c2c(F)cc(F)cc2F)c(Cl)nc2nc(Cl)nn12` [Example 86] yielded a log.P of 3.37.
